Test results reported in patent US12714698B2, “Compositions and methods for treating or preventing dermal disorders” (Drexel University, priority 2015, dated 2026).

Assays:
[1] = system: human cardiac fibroblasts; experiment: Nanostring analysis of mRNA levels; format: cell-based; conditions: rapamycin
Method: Cell culture experiments utilizing NRTIs were of the following design. Cultures of either human lung or cardiac fibroblasts were cultivated according to standard culture protocols for these cells (Cristofalo, et al., Journal of Tissue Culture Methods 1980, 6:117-121). Parallel sets of cultures were maintained in normal growth media or in normal growth media with the addition of 1 nM rapamycin. Cultures were maintained with 1 nM rapamycin (Enzo Biologicals) for two weeks before exposure to NRTIs. Cell cultures were exposed to NRTIs at indicated concentrations in individual experiments (generally 10-20 μg/ml) for 7 days, with a change of media and fresh NRTIs at day 4. Mitochondrial measurements, bioanalyzer measurements, immunoblotting for protein expression and phosphorylation status, and assays for senescence were performed at the end of this 7-day period.
Differences in mitochondria-related gene expression was examined using a nanostring approach which allows multiplex evaluation of mRNA species in the absence of amplification and provides a direct count of mRNA molecules. The mRNA levels paralleled the changes observed in protein levels as mRNA levels for all subunits increased in cells exposed to NRTIs while rapamycin decreased mRNA levels for all subunits (FIGS. 2D-2H).

[2] = system: dermal atrophy and actinic keratosis; experiment: Single site open label study, topical application in a patient; format: in vivo, human; conditions: 14 days of rapamycin treatment in an emulsified gel preparation, digital caliper
Method: In certain embodiments, dermal atrophy is evaluated by measurement of the dermal layer utilizing a calibrated digital caliper measurement of the dermal layer. In other embodiments, improvement in seborrheic keratosis, lentigines, pseudoscars, coarse wrinkles, and epidermal thickening is evaluated through an investigator evaluation rating scale of 1-4, in which 1 is normal with no sign of lesion; 2 represents minor lesions; 3 represents lesions that are distinct features relative to normal skin; and 4 represents lesions that are of high severity. […] In yet other embodiments, lesions are evaluated by area measurement using manual measurement of the lesion or through analysis of images taken by investigators or research study staff.
Patients presenting to a physician with a diagnosis of dermal atrophy, seborrheic keratosis, actinic keratosis, lentigines, senile pseudoscars, or coarse wrinkles were selected for administration of a composition of the invention. Dermal thickness was quantified using a Mitoutoyo digital caliper with certified accuracy to 0.001 mm. […]
A single site open label study was performed. A patient presenting with an area of dermal atrophy and actinic keratosis on the hand was evaluated for application of Formulation R. the contralateral hand with similar dermal thickness but no actinic keratosis was used as a control. […]

p53 and MDM2 = experiment: p53/MDM2 co-immunoprecipitation and p53 forms after proteasome inhibition; format: cell-based, human; conditions: after proteasome inhibitor
Method: FIGS. 11A-11F illustrate status of p53 in human cardiac fibroblast cultures exposed to NRTIs and in rapamycin-treated cultures. FIG. 11A is a bar graph illustrating comet assay results for cells exposed to NRTIs or hydrogen peroxide as a positive control. The white bar represents control data; grey bar represents data from cells exposed to 10 or 20 μg/ml NRTI for 7 days; and the black bar represents data from cells exposed to 200 μM hydrogen peroxide for 2 hours. […] FIG. 11B depicts the results of an immunoprecipitation experiment using antibodies against p53. Cell lysates from control and rapamycin-treated cultures, with or without NRTI exposure for 7 days, were subjected to immunoprecipitation using anti-p53 antibodies followed by immunoblot analysis for MDM2 and subsequently for p53. […] FIG. 11F is a bar graph illustrating relative intensity of cytosolic MDM2 staining as determined by Image J Analysis.
Cell protein extracts were prepared by extracting with radioimmunoprecipitation assay (RIPA) buffer containing a protease inhibitor cocktail (Sigma-Aldrich) and phosphatase inhibitors, NaF and sodium orthovanadate. Protein concentration was quantified using a bicinchoninic acid (BCA) assay (Pierce Biotechnology). […] For co-immunoprecipitation, cell protein extracts were prepared in HNTG buffer containing a protease inhibitor cocktail and quantified using BCA assay. […]

CO[C@H]1C[C@@H]2CC[C@@H](C)[C@@](O)(O2)C(=O)C(=O)N2CCCC[C@H]2C(=O)O[C@H]([C@H](C)C[C@@H]2CC[C@@H](O)[C@H](OC)C2)CC(=O)[C@H](C)/C=C(\C)[C@@H](O)[C@@H](OC)C(=O)[C@H](C)C[C@H](C)/C=C/C=C/C=C/1C [rapamycin]
mRNA levels for ETC subunits [1]: decreased
dermal thickness in atrophic skin [2]: increases dermal thickness
high molecular weight forms of p53 (p53 and MDM2): prominent
